Data from ChEMBL document CHEMBL3227973, “Synthesis and platelet aggregation inhibitory activity of 6-isobutyl-alpha-methyl-3-pyridineacetic acid” (1979).
Active and inactive are the calls of the source. The rule behind the calls is not given here.

Legend:
Rattus norvegicus [1] = assay: Ex vivo antiplatelet activity in Sprague-Dawley rat assessed as inhibition of collagen-induced platelet aggregation at 40 mg/kg, po after 1 hr; type: functional
Rattus norvegicus [2] = assay: Ex vivo antiplatelet activity in Sprague-Dawley rat assessed as inhibition of collagen-induced platelet aggregation at 10 mg/kg, po after 1 hr; type: functional
Rattus norvegicus [3] = assay: Ex vivo antiplatelet activity in Sprague-Dawley rat assessed as inhibition of collagen-induced platelet aggregation at 50 mg/kg, po after 1 hr; type: functional
Mus musculus = species: Mus musculus; assay: Ex vivo antiplatelet activity in mouse assessed as inhibition of collagen-induced platelet aggregation at equivalent dose of ibuprofen after 1 hr

Structure (SMILES) | inhibition in vivo at 40 mg/kg (Rattus norvegicus [1]) [%] | inhibition in vivo at 10 mg/kg (Rattus norvegicus [2]) [%] | inhibition in vivo at 50 mg/kg (Rattus norvegicus [3]) [%] | inhibition (Mus musculus)
CC(C)Cc1ccc(C(C)C(=O)O)cc1 (stereo not given) [IBUPROFEN] | 88 | 10 |  | 
CC(C)Cc1ccc(C(C)C(=O)O)cn1 (stereo not given) |  | 33 | 65 | 
CC(C)Cc1ccc(C(C)C(=O)O)c(Cl)n1 (stereo not given) |  |  |  | inactive
